Values quoted from earlier work as cited in patent US20190100806A1, “MARKER FOR PREDICTING TREATMENT RESPONSE TO ANTI-CANCER AGENT IN SOLID CANCER PATIENTS” (DAEWOONG PHARMACEUTICAL CO., LTD., priority 2016, published 2019).

Columns and labels:
[1] = test system: RAC serine/threonine-protein kinase (Akt) phosphorylation; conditions: mouse models xenografted with human PTEN-deficient tumor cells
[2] = test system: PC-3 (human prostate cancer) cells; conditions: PC-3 cells, PTEN-deficient; read-out: median effective concentration (EC50)
[3] = test system: Akt phosphorylation (Ser473); conditions: single dose, mouse model xenografted with PC-3 cells
[4] = test system: HCC70 (human breast ductal carcinoma) cells; conditions: PTEN-deficient, read-out: median effective concentration (EC50)

Cc1c(Cn2c(C)nc3c(C(=O)O)cc(N4CCOCC4)cc32)cccc1C(F)(F)F [GSK-2636771]
phosphorylation of Akt [1]: inhibits the phosphorylation of RAC serine/threonine-protein kinase (Akt) in a dose-dependent manner
EC50 [2]: 36 nM
Akt phosphorylation (Ser473) [3]: reduce Akt phosphorylation (Ser473)
EC50 [4]: 72 nM
